Where a SMILES comes first, the peptide text is derived from it.
How the values were obtained:
[1] = tested on: fmr1 KO hippocampal neurons; experiment: Dendritic spine density in hippocampal primary cell cultures (microfluidic chamber, GFP); format: cell-based, mouse; settings: 0.5 nM, n=3 independent experiments
Experimental: Hippocampal cell cultures were prepared from wild-type and fmr1 KO foetal mice (14-16 d of gestation). After 3d in vitro, green fluorescent protein (GFP) was used to monitor dendritic spine density during time-course of culture (Ethell and Yamaguchi, 1999; Ethell et al., 2001, Henkemeyer et al., 2003). Dendritic spines are usually formed between 7 and 14 days in vitro (DIV). By 14 DIV most dendritic protrusions are spines. We evaluated the effect of G-2-MePE, a positive control (the mGluR5 antagonist 2-methyl-6-(phenylethynyl)-pyridine or MPEP) and vehicle controls on dendritic spine density in fmr1 KO and WT hippocampal primary cell cultures. Fmr1 KO and wild-type cultures were treated at 17 DIV.
We used the compartmentalized culture system, a microfluidic chamber (see FIG. 31A) which opens the possibility for fast drug testing with the capacity to detect in vitro drug effects such as spine morphology, neurite outgrowth and synapse formation. The treated and untreated neurons in the compartmentalized chambers can be also being use for western blot analysis. The compartmentalised culture is a new approach to evaluate the effect of drugs on anterograde and retrograde transport of messengers and proteins relevant to FXS. Other new possibility that offers this approach its access into exclusive axon compartment, in this area immunodetection and treatments are also possible. […]

[2] = tested on: MeCP2 deficient mice
Experimental: We treated hemizygous MeCP2(1lox) male mice with 20 mg/kg/day of G-2-MePE or saline, (0.01% BSA, n=15 per group in survival experiment and n=20 in the LTP experiment). The treatments were administered intraperitoneally from 4 weeks after birth. For the survival experiments the treatment was maintained through the course of the experiment. For the LTP experiment the mice were treated until week 9 when they were used for slice preparation.
MeCP2 deficient mutant mice develop RTT symptoms at about 4-6 weeks of age and die between 10-12 weeks (Chen et al., 2001. Nat Genet 27: 327-331). We compared the survival of the wild type controls and the MeCP2 deficient animals in vehicle- and G-2-MePE-treated groups. Survival was measured weekly from start of treatment (4 weeks) and used to produce Kaplan-Meier survival curves to show the proportion of mice that survived (y axis) at each weekly interval (x axis) (see FIG. 22).

[3] = tested on: MeCP2-/y mice; experiment: Heart rate measurements (Example 10); format: in vivo, mouse; settings: 8 weeks old, treated from P15
Experimental: Real time cardiac pulse rate is measured using a tail clip sensor (Mouse OX Oximeter—Oakmont, Pa.). Mice are not anesthetized but physically restrained in a fitted open plastic tube. Prior to the recording session the tube is placed overnight in the cages housing the experimental animals to allow habituation. Body temperature is maintained at ˜82-84° F. throughout the recording time. We record 3 trials of 15 minutes for each mouse, mice are 8 weeks old and treated with vehicle or G-2-MePE from P15.

[4] = tested on: fmr1 knockout mice; experiment: Species typical behaviors: marble burying and nest building; format: in vivo, mouse; settings: 100 mg/kg i.p. 28 days
[5] = tested on: MeCP2-/y mice; experiment: Life span (Example 10); format: in vivo, mouse; settings: 20 mg/kg i.p. daily from P15; vs MeCP2 KO littermates
Experimental: For the survival measurements, the nocturnal activity analysis and the immunoblot analysis, G-2-MePE (synthesised Albany Molecular Research Inc. (Albany, N.Y.) and supplied by Neuren Pharmaceuticals Limited) is administered daily via intra-peritoneal injections (20 mg/kg, vehicle=saline, 0.01% BSA). The treatment starts at P15 and is maintained throughout the course of the experiments. For intracellular physiology experiments, the mice are injected daily with G-2-MePE (20 mg/kg body weight, vehicle=saline, 0.01% BSA) for 2 weeks, from P15 to P28-P32 when they are used for acute slice preparation. For optical imaging experiments, mice are injected with G-2-MePE (20 mg/kg body weight, vehicle=saline, 0.01% BSA) daily from the day of the lid suture to the day of imaging.

[6] = tested on: heterozygous Shank3-deficient mice; experiment: Social interaction and ultrasonic vocalization, Shank3-deficient mice (Example 13); format: in vivo, mouse; settings: 15 or 60 mg/kg oral b.i.d. 14 days; vs placebo
Experimental: 1 to 3 month old wild type and heterozygous Shank3-deficient mice are divided into 4 treatment groups: placebo treated wild-type, placebo treated Shank3-deficient group and two Shank3-deficient G-2-MePE treated groups. The animals are given placebo (water) or G-2-MePE formulated in water administered orally, b.i.d for 14 days. G-2-MePE is administered at two doses: 15 or 60 mg/kg.
Behavioral assessments are made at several time points, and include analysis of social interactions and ultrasonic social communication, in line with the methodology described by Bozdagi et al. Briefly, male-female social interactions in each treatment group are evaluated. The subject males are group-housed and individually tested in clean cages with clean litter. Each testing session lasts 5 min. […] Videos from the male subjects are subsequently scored by an investigator uninformed of the subject's genotype and treatment group on measures of nose-to-nose sniffing, nose-to-anogenital sniffing and sniffing of other body regions, using Noldus Observer software (Noldus Information Technology, Leesburg, Va., USA). Ultrasonic vocalizations are identified manually by two highly trained investigators blinded to genotype/treatment group information, and summary statistics are calculated using the Avisoft package. […] Data are analysed using an unpaired Student's t-test.

Structure (SMILES): C[C@@]1(C(=O)N[C@@H](CCC(=O)O)C(=O)O)CCCN1C(=O)CN [Example G-2-MePE, Glycyl-L-2-methylprolyl-L-glutamic acid] (HELM PEPTIDE1{G.[C[C@@]1(C(=O)[*:2])CCCN1[*:1]].E}$$$$V2.0)
- dendritic spine density (mean±SD) [1]: 0.33±0.07 spines per micrometer
- time at which 50% of the animals survived ([2]; 20 mg/kg/day i.p. from 4 weeks, saline about 11 weeks): about 15 weeks
- time to 50 percent death, re-examination with control group re-run ([2]; 20 mg/kg/day i.p., controls 13.5 weeks): 16 weeks
- time to 50 percent death, data initially presented ([2]; 20 mg/kg/day i.p., untreated 11 weeks): 16 weeks
- safety in mecp2 mice ([2]; mouse, in vivo): No safety concerns
- occurrence of irregular, lower heart rate [3]: significantly reduced
- marble burying behavior ([4]; fmr1 KO): normalized marble burying behavior
- nest building behavior ([4]; fmr1 KO): increased both marble burying and nest building behaviors
- marble burying ([4]; wild-type mice): no significant effect
- increase in life expectancy (0.5 probability survival rate) [5]: ~50%
- cumulative duration of total social sniffing [6]: significant increase
- number of ultrasonic vocalizations [6]: increased number of ultrasonic vocalizations

— patent publication US20150224164A1, “TREATMENT OF AUTISM SPECTRUM DISORDERS USING GLYCYL-L-2-METHYLPROLYL-L-GLUMATIC ACID” (Neuren Pharmaceuticals Limited, priority 2013, published 2015)
